Calls of active or inactive are those of the source. The calls are words filed in the database; no cut-off is given here.
tested on: Clostridium botulinum; experiment: Inhibition of Clostridium botulinum A recombinant light chain protease LC/A by at 100 uM by FRET assay

For `O=C(NO)c1cc2ccc(Cl)cc2[nH]1`, the Activity was “inactive”.

tested on: not listed separately; experiment: (§1) Inhibition of Clostridium botulinum A recombinant light chain protease LC/A by FRET assay

Compared with `O=C(NO)c1ccc2cc(Br)ccc2c1`, `O=C(NO)c1ccc2cc(Cl)ccc2c1` is 3.4-fold lower in IC50: 71 µM for the first, 21 µM for the second. The second is the more potent here.

Going from `O=C(/C=C/c1ccc(Cl)cc1[N+](=O)[O-])NO` to `Nc1cc(Cl)ccc1/C=C/C(=O)NO`, the IC50 rises from 2 µM to 25 µM (12-fold).

`O=C(/C=C/c1ccc(Cl)cc1Br)NO` and `O=C(/C=C/c1ccc(Cl)cc1Cl)NO` [CINNAMIC ACID HYDROXAMATE] are within 1.5-fold of each other in IC50: 0.7 µM for the first, 0.9 µM for the second.

First: O=C(/C=C/c1ccc(Cl)cc1C(F)(F)F)NO
Second: O=C(/C=C/c1ccc(Cl)cc1F)NO
The IC50 of the first is 7.3-fold lower: 0.6 µM for the first, 4.4 µM for the second.

Compared with `CSc1cc(Cl)ccc1/C=C/C(=O)NO`, `Cc1cc(Cl)ccc1/C=C/C(=O)NO` is 6.4-fold lower in IC50: 5.1 µM for the first, 0.8 µM for the second.

`CS(=O)(=O)c1cc(Cl)ccc1/C=C/C(=O)NO` and `O=C(/C=C/c1ccc(Cl)cc1O)NO` are within 1.5-fold of each other in IC50: 17 µM for the first, 13 µM for the second.

`O=C(NO)c1cc2ccc(Cl)cc2s1` and `Cn1c(C(=O)NO)cc2ccc(Cl)cc21` are within 1.5-fold of each other in IC50: 45 µM for the first, 38 µM for the second.

`COc1cc(Cl)ccc1/C=C/C(=O)NO` and `N#Cc1cc(Cl)ccc1/C=C/C(=O)NO` are within 1.5-fold of each other in IC50: 9 µM for the first, 12 µM for the second.

`O=C(NO)C1=Cc2ccc(Cl)cc2C1` showed an IC50 of 41 µM.

tested on: Clostridium botulinum; experiment: as §1

For `O=C(NO)c1cc2ccc(Cl)cc2[nH]1`, the Activity was “inactive”.
